According to US5185320A, “O^56 -alkyl derivatives of aglycone and pseudo aglycones of teicoplanin” (Gruppo Lepetit S.p.A., priority 1989, dated 1993):

Tests used:
Type in all cases: cell-based
Settings in all cases: inoculum about 10^4 CFU/ml, 18-24 h at 37° C.
Strep. pneumoniae UC41 = assay: MIC, standard dilution test, Strep. pneumoniae UC41
Procedure: (§1) ISOSENSITEST broth (Oxoid) and TOLLD-HEWITT broth (Difco) are used for growing staphylococci and streptococci, respectively. Broth cultures are diluted so that the final inoculum is about 10^4 colony forming units/ml (CFU/ml).

[1] = tested on: Haemophilus influenzae ATCC 19418; assay: MIC, standard dilution test, Haemophilus influenzae ATCC 19418
Procedure: as §1

[2] = tested on: Staph. epidermidis ATCC 12228; assay: MIC, standard dilution test, Staph. epidermidis ATCC 12228
Procedure: as §1

[3] = tested on: Pseudomonas aeruginosa ATCC 10145; assay: MIC, standard dilution test, Pseudomonas aeruginosa ATCC 10145
Procedure: as §1

[4] = tested on: Strep. faecalis ATCC 7080; assay: MIC, standard dilution test, Strep. faecalis ATCC 7080
Procedure: as §1

Staph. aureus Tour L 165 = assay: MIC, standard dilution test, Staph. aureus Tour L 165
Procedure: as §1

Strep. mitis L 796 = assay: MIC, standard dilution test, Strep. mitis L 796
Procedure: as §1

Strep. pyogenes C 203 = assay: MIC, standard dilution test, Strep. pyogenes C 203
Procedure: as §1

[5] = tested on: Proteus vulgaris ATCC 881; assay: MIC, standard dilution test, Proteus vulgaris ATCC 881
Procedure: as §1

[6] = tested on: Staph. haemolyticus L 602; assay: MIC, standard dilution test, Staph. haemolyticus L 602
Procedure: as §1

[7] = tested on: Escherichia coli SKF 12140; assay: MIC, standard dilution test, Escherichia coli SKF 12140
Procedure: as §1

[8] = tested on: Neisseria gonorrhoeae ISM68/126; assay: MIC, standard dilution test, Neisseria gonorrhoeae ISM68/126
Procedure: as §1

Substance	Minimal inhibitory concentration (MIC) (Strep. pneumoniae UC41)	Minimal inhibitory concentration (MIC) [1]	Minimal inhibitory concentration (MIC) [2]	Minimal inhibitory concentration (MIC) [3]	Minimal inhibitory concentration (MIC) [4]	Minimal inhibitory concentration (MIC) (Staph. aureus Tour L 165)	Minimal inhibitory concentration (MIC) (Strep. mitis L 796)	Minimal inhibitory concentration (MIC) (Strep. pyogenes C 203)	Minimal inhibitory concentration (MIC) [5]	Minimal inhibitory concentration (MIC) [6]	Minimal inhibitory concentration (MIC) [7]	Minimal inhibitory concentration (MIC) [8]
O-(2-(3-(4-(3-amino-propyl)amino)butyl)amino)propyl)amino)-1-hydroxy-2-oxoethyl)teicoplanin aglycone 1-(3-(4-(3-aminopropyl) amino)butyl)amino)propyl)amino)carbonyl)-3-hydroxy-propyl ester [Compound 25]	0.125	> 128	0.125	> 128	1	0.25	0.125	0.125	64	0.25	32	> 128
O^56 -(2-bromoethyl)deglucoteicoplanin phenylmethyl ester [Compound 19]	0.5	> 128	0.5	> 128	4	1	0.25	0.25	> 128	4	> 128	> 128
